The text below walks through data of patent publication US20230174485A1, “LIPOXYGENASE INHIBITORS” (SRI International, priority 2020, published 2023).

Values joined by “and” are separate entries in the source; they are usually repeats but may differ in a detail not shown here. Identical values can stand only once. Like-named read-outs stand apart in the source and are kept apart here.

Common to all, as to assay type: biochemical
Test [1] concerns the target T1, recombinant 12-LOX enzyme (Homo sapiens, UniProt P18054).
T1 sequence (P18054 1-663): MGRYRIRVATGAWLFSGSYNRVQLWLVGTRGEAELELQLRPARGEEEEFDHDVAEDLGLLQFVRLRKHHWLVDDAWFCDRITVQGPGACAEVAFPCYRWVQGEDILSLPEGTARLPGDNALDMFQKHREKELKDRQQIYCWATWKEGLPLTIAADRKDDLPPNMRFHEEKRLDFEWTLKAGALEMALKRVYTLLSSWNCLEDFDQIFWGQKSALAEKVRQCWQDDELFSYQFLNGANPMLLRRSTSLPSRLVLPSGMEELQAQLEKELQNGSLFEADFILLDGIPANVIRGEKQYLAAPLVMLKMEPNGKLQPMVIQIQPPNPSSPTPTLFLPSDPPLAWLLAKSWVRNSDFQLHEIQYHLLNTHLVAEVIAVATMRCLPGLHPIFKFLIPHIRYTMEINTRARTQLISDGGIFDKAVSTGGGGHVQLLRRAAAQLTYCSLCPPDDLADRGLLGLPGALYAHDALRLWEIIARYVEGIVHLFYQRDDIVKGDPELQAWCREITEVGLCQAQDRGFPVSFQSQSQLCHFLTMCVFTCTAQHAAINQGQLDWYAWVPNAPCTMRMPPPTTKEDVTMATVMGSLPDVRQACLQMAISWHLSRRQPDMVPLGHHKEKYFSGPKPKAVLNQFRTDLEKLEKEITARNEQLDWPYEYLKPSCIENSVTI
As to the kind of experiment: 12-LOX fluorescent assay. To be noted: several values in one cell = repeat determinations. Here is the method: (§1) 12-LOX/15-LOX Fluorescent Assay
(§2) The enzyme assay (100 ul) contained 50 mM Tris, pH 7.5, 0.05% Tween-20, 20 μM AA/LA, 1 μM DHR123, and 100 nM recombinant 12-LOX enzyme/50 nM recombinant 15-LOX enzyme. Inhibitors (dissolved in DMSO) were plated at 1 μL into 96-well assay microplates followed by a 40 μL addition of a solution containing 12-LOX/15-LOX enzyme. Enzyme was pre-incubated with compounds for 15 mins. The assay was initiated by the addition of a 40 μL substrate solution containing AA/LA, and 20 μL addition of a solution containing DHR123. Enzymatic reaction proceeded for 30 min with kinetic reading at 500 nm excitation & 536 nm emission in SpectraMax Paradigm (MolecularDevice). Percent inhibition was calculated for each compound dose for IC50 curve fitting using 4 Parameter Logistic Model or Sigmoidal Dose-Response Model.

In test [2] the target is T2, recombinant 5-LOX (Homo sapiens, UniProt P09917).
T2 sequence (P09917 1-674): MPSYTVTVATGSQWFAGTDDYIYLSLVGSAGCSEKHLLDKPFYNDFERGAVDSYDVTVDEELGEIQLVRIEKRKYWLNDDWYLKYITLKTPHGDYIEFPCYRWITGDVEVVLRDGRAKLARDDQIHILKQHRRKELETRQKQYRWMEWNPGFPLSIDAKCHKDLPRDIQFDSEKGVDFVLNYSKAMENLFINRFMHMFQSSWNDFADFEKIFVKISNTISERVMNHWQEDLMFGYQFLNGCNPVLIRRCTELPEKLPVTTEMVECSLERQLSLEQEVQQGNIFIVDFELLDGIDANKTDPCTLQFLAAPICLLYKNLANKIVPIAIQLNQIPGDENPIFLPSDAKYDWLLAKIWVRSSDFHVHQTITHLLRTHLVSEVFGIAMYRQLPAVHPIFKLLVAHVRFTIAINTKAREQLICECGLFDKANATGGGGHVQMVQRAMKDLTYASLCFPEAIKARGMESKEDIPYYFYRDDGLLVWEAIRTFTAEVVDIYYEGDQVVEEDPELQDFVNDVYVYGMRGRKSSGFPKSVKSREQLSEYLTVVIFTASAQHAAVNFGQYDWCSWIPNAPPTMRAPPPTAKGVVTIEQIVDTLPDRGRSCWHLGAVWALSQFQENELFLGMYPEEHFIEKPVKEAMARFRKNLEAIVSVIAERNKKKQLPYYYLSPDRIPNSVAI
As to the kind of experiment: 5-LOX fluorescent assay. The note with it: several values in one cell = repeat determinations; read-out: IC50 (μM) values for in vitro lipoxygenase inhibition, 5-LOX. As to the method: 5-LOX FI assay Fluorescent Assay
The enzyme assay (100 μL) contained 50 mM Tris, pH 7.5, 0.1 mM EDTA, 0.3 mM CaCl2, 20 μM AA, 100 μM ATP, 1 μM DHR123, and recombinant 5-LOX cell lysate (0.5 μL/100 μL). Inhibitors (dissolved in DMSO) were plated at 1 μL into 96-well assay microplates followed by a 40 μL addition of a solution containing 5-LOX enzyme. Enzyme was pre-incubated with compounds for 15 mins. The assay was initiated by the addition of a 40 μL substrate solution containing AA and ATP, and 20 μL addition of a solution containing DHR123. Enzymatic reaction proceeded for 30 min with kinetic reading at 500 nm excitation & 536 nm emission in SpectraMax Paradigm (MolecularDevice). Percent inhibition was calculated for each compound dose for IC50 curve fitting using 4 Parameter Logistic Model or Sigmoidal Dose-Response Model.

Test [3] deals with T3, recombinant 15-LOX enzyme (Homo sapiens, UniProt P16050).
T3 sequence (P16050 1-662): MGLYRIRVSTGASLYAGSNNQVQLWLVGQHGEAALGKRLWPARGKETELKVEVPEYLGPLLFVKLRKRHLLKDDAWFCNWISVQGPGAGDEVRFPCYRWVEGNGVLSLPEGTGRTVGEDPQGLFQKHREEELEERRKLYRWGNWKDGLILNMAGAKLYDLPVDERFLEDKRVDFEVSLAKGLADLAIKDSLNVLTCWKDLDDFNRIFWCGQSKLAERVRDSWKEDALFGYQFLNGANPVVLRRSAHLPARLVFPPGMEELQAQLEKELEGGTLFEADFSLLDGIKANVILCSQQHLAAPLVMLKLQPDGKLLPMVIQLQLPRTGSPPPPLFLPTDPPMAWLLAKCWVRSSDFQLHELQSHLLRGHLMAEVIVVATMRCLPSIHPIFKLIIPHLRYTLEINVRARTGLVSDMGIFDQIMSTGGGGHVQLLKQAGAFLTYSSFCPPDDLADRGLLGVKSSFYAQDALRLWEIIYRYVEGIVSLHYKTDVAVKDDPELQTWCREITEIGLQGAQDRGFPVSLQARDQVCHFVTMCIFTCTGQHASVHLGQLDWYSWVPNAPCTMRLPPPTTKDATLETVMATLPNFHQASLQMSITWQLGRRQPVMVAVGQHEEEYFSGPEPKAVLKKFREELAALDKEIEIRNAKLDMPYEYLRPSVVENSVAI
The experiment in a line: 15-LOX fluorescent assay. To be noted: several values in one cell = repeat determinations. As to the method: as §1, §2

Setting [4] is: read-out: IC50 (μM) values for in vitro lipoxygenase inhibition, 12-LOX.
[5] abbreviates: read-out: IC50 (μM) values for in vitro lipoxygenase inhibition, 15-LOX.
[6] abbreviates: IC50 (μM) values for in vitro lipoxygenase inhibition, 15-LOX.

What is called IC50 is the concentration that gives 50% inhibition. `CN(C)CCOc1c2[nH]c3ccc(F)cc3c2c(F)c2[nH]c3ccc(F)cc3c12` [SS20308-0101-01, N,N-dimethyl-2-(2,8,12-trifluoro-5,11-dihydroindolo[3,2-b]carbazol-6-yloxy) ethanamine]: the IC50 in test [1] (setting [4]) was 0.08 µM and 0.1 µM and 0.12 µM; in test [2] it was 0.07 µM and 0.05 µM and 0.04 µM; in test [3] (setting [5]) it was 40 nM (2×) and 70 nM.
As to `CN(C)CCOc1cc2c3ccccc3[nH]c2c2[nH]c3ccccc3c12` [SS20308-0103-01, 2-(11,12-dihydroindolo[2,3-a]carbazol-5-yloxy)-N,N-dimethylethanamine], the IC50 in test [1] (setting [4]) was determined as 2.23 µM; in test [2], 0.02 µM; in test [3] (setting [5]), 0.06 µM.
On to `c1ccc(-c2cc(NCCCn3cncn3)cc3c2[nH]c2ccccc23)cc1` [SS20308-0111-01, N-(3-(1H-1,2,4-triazol-1-yl)propyl)-1-phenyl-9H-carbazol-3-amine], for which the IC50 in test [1] (setting [4]) is 44.9 µM; in test [2], 20.3 µM; in test [3] (setting [5]) it was 0.09 µM.
Turning to `Cc1c2[nH]c3ccccc3c2cc2[nH]c3ccccc3c12` [SS20308-0112-01, 6-methyl-5,11-dihydroindolo[3,2-b]carbazole], the IC50 in test [1] (setting [4]), in test [2] and in test [3] (setting [5]) was above 100 µM in each case.
Take `COc1ccc2c([nH]c3ccc(F)cc32)c1CCCN(C)C` [SS20308-0118-01, 3-(6-fluoro-2-methoxy-9H-carbazol-1-yl)-N,N-dimethylpropan-1-amine]: the IC50 was found to be 24.2 µM in test [1] (setting [4]), 23.2 µM in test [2] and 26.9 µM in test [3] (setting [6]).
In the case of `CN(C)CCOc1cc2c(cc1CNc1ccccc1)[nH]c1ccccc12` [SS20308-0119-01, N-((3-(2-(dimethylamino)ethoxy)-9H-carbazol-2-yl)methyl)aniline], the IC50 in test [1] (setting [4]) turned out to be 0.83 µM; in test [2], 1.04 µM; in test [3] (setting [5]), 0.71 µM.
`CN(C)CCOc1c2[nH]c(-c3ccccc3)nc2c(F)c2c1[nH]c1ccccc12` [SS20308-0121-01, 2-(10-fluoro-2-phenyl-3,5-dihydroimidazo[4,5-b]carbazol-4-yloxy)-N,N-dimethylethanamine]: the half-inhibitory concentration (IC50) in test [1] (setting [4]) is 1.16 µM; in test [2], 0.53 µM; in test [3] (setting [5]), 0.86 µM.
Turning to `CN(C)CCOc1c2nc(-c3ccccc3)[nH]c2cc2[nH]c3ccccc3c12` [SS20308-0122-01, N,N-dimethyl-2-(2-phenyl-3,5-dihydroimidazo[4,5-b]carbazol-10-yloxy)ethanamine], the IC50 in test [1] (setting [4]) came to 0.87 µM; in test [2], 1.02 µM; in test [3] (setting [6]), 1.38 µM.
`CN(C)C/C=C\c1c2[nH]c3ccccc3c2cc2[nH]c3ccccc3c12` [SS20308-0126-01, (Z)-3-(5,11-dihydroindolo[3,2-b]carbazol-6-yl)-N,N-dimethylprop-2-en-1-amine]: the IC50 turned out to be 0.04 µM in test [1] (IC50 (μM) values for in vitro lipoxygenase inhibition, 12-LOX); 0.04 µM in test [2]; 0.04 µM in test [3] (setting [6]).
On to `COc1c2[nH]c(-c3ccccc3)nc2c(F)c2c1[nH]c1ccccc12` [SS20308-0137-01, 10-fluoro-4-methoxy-2-phenyl-3,5-dihydroimidazo[4,5-b]carbazole], for which the figures for the IC50 in test [1] (setting [4]), in test [2] and in test [3] (setting [5]) were 0.53 µM, 0.72 µM and 0.5 µM, respectively.
As to `Fc1ccc2[nH]c3c(NCCn4cncn4)c(-c4ccccc4)ccc3c2c1` [SS20308-0154-01, N-(2-(1H-1,2,4-triazol-1-yl)ethyl)-6-fluoro-2-phenyl-9H-carbazol-1-amine], the IC50 worked out at 0.35 µM in test [1] (setting [4]), 1.06 µM in test [2] and 0.44 µM in test [3] (setting [5]).
As to `c1ccc(NC2CCc3[nH]c4ccccc4c3C2)cc1` (stereo not drawn) [SS20308-0158-01, N-phenyl-2,3,4,9-tetrahydro-1H-carbazol-3-amine], the IC50 came out at 3.16 µM in test [1] (setting [4]), 3.75 µM in test [2] and 1.55 µM in test [3] (setting [5]).
Consider `CN(C)CCCn1c2c(c3ccccc31)CC(Nc1ccccc1)CC2` (stereo not drawn) [SS20308-0159-01, 9-(3-(dimethylamino)propyl)-N-phenyl-2,3,4,9-tetrahydro-1H-carbazol-3-amine], for which the IC50 is 2.75 µM in test [1] (setting [4]), 1.85 µM in test [2] and 1.59 µM in test [3] (setting [5]).
Take `CN(C)CCCc1cc(-c2cccc3c2NCC3)cc2[nH]c3ccccc3c12` [SS20308-0170-01, 3-(2-(indolin-7-yl)-9H-carbazol-4-yl)-N,N-dimethylpropan-1-amine]: the values for the half-inhibitory concentration (IC50) in test [1] (setting [4]), in test [2] and in test [3] (setting [5]) were 2.17 µM, 4.38 µM and 1.53 µM, respectively.
As to `c1ccc2c(c1)[nH]c1cc3c(cc12)CCN3CCn1cncn1` [SS20308-0180-01, 1-(2-(1H-1,2,4-triazol-1-yl)ethyl)-1,2,3,9-tetrahydropyrrolo[2,3-b]carbazole], the IC50 in test [1] (setting [4]) was 0.03 µM and 0.08 µM; in test [2] it was 0.44 µM and 0.81 µM; in test [3] (setting [5]) it was 0.39 µM and 0.51 µM.
In the case of `CN(CCn1cncn1)c1cc2c(cc1-c1ccccc1)[nH]c1ccc(F)cc12` [SS20308-0182-01, N-(2-(1H-1,2,4-triazol-1-yl)ethyl)-6-fluoro-N-methyl-2-phenyl-9H-carbazol-3-amine], the IC50 in test [1] (setting [4]) came out at 0.31 µM; in test [2], 0.77 µM; in test [3] (setting [6]) it was 1.4 µM.
In the case of `CN(C)CCC(c1ccccc1)c1ccc2[nH]c3ccccc3c2c1` (stereo not drawn) [SS20308-0183-01, 3-(9H-carbazol-3-yl)-N,N-dimethyl-3-phenylpropan-1-amino], the IC50 in test [1] (setting [4]) was determined as 50.9 µM; in test [2], 5.01 µM; in test [3] (setting [5]) it was 13.1 µM.
